{
  "source": "patent US20200129471A1",
  "about": "“USE OF CANNABIS TO TREAT FIBROMYALGIA, METHODS AND COMPOSITIONS THEREOF” (ONE WORLD CANNABIS LTD, priority 2015, published 2020)",
  "origin": "cited, not measured here",
  "conditions": "administered to humans for 30 days",
  "data": [
    {"smiles": "C=C(C)[C@@H]1CCC(C)=C[C@H]1c1c(O)cc(CCCCC)cc1O", "note": "[CBD, cannabidiol]", "values": [
      {"measurement": "tolerability", "value": "tolerated"}
    ]}
  ]
}
